Measured values from patent US11491132B2, “Methods for treating thrombocytopenia” (Enzychem Lifesciences Corporation, priority 2014, dated 2022).

How the values were obtained:
[1] = tested on: PKCθ/p38 MAPK/ERK pathway; assay: Dephosphorylation of p38 MAPK and ERK1/2 in PLAG-treated RBL-2H3 cells, western blot; assay type: cell-based; details: PLAG pre-incubated RBL-2H3 cells, IgE-antigen complex stimulation
Procedure: Dephosphorylation of p38 MAPK and ERK1/2 in PLAG-treated RBL-2H3 cells is determined by western blot analysis using anti-phospho-p38 and anti-phospho-ERK1/2 respectively. To activate the p38 and ERK1/2 in RBL-2H3 cells, the cells are sensitized with 50 ng/mL of anti-DNP-IgE overnight. After washing with PBS three times, 20 ng/ml of DNP-HSA is added. Each cell lysate for western blot is prepared in the PLAG-treated RBL-2H3 cells in a dose-dependent manner and incubated for the same time (15 min). β-actin is used as internal controls. ERK1/2 and p38 phosphorylation start immediately after IgE-antigen complex stimulation and remain sufficiently activated for 5 min.

C3 [2] = assay: C3 expression in IL-4/TNF-α treated HMC-1 cells, RT-PCR; assay type: cell-based, human; details: HMC-1 cells treated with IL-4 and TNF-α; PLAG 0.1 and 1 μg/mL pre-treatment, or S6I
Procedure: A blood cell line, HMC-1 (human mast cell, American Type Culture Collection, ATCC, Rockville, Md.) is incubated and maintained at 37° C. under 5% CO2 humid conditions. The medium is IMDM (Life Technologies, Karlsruhe, Germany) containing 10% Fetal Calf Serum (FCS, HyClone, Logan, Utah), 2 mM […], 100 μg/ml penicillin, 100 μg/ml streptomycin (Life Technologies). The cultured HMC-1 cells (1×10^6 cell/ml) are pre-treated with 0.1 and 1 μg/mL concentration of PLAG, followed by treating with IL-4 (5 ng) and/or TNF-α (10 ng) to induce cellular activities.
The expressed C3 and its mRNA level change are observed by using RT-PCR (Reverse Transcriptase Polymerase Chain Reaction). The RT-PCR is carried out as follows: the total RNA is separated by the standard protocol and cDNA is synthesized using AccuScript High Fidelity 1st Strand cDNA Synthesis Kit (Stratagene) by the manufacturer's instructions. Two-step RT-PCR reaction is conducted using Oligo-dT primer and reverse transcriptase, pair of primer and Taq polymerase (Takara, Shiga, Japan). […] The product of PCR is separated using 1.5% agarose gel, dyed with ethidium bromide (EtBr), and visualized with Gel Doc 2000 UV trans-illuminator (Bio-Rad Laboratories, Hercules, Calif., USA), and the experimental data is analyzed using Quantity One software (Bio-Rad Laboratories).

C3 [3] = assay: C3 inhibition by PLAG in HMC-1, ELISA; assay type: cell-based, human; details: HMC-1 cells, PLAG 1, 10 and 100 μg/mL for 2 hours, activated 72 hours
Procedure: In a separate experiment, human mast cells (HMC-1, 1×10^5 cell/ml) are treated with PLAG of various concentrations (1, 10 and 100 μg/mL) for 2 hours. The cells are activated for 72 hours with 10% FBS (Fetal bovine serum) containing IMDM. The decrease of C3 is confirmed by ELISA analysis of the expressed protein.

HepG2 cells = assay: WST-1 cell viability assay in HepG2 cells; assay type: cell-based; details: PLAG 1 to 100 μg/ml
Procedure: The incubated HepG2 cell lines are treated with PLAG (1˜100 μg/ml), followed by IL-4 and TNF-α, reacted for 1 hour, incubated for 18 hours at 37° C. and the supernatant isolated. Quantitation of the amount of C3 in the cellular culture medium (supernatant) from HepG2 cells is performed by ELISA using a commercially available monoclonal antibody (mAb, R&D Systems) and the manufacture's protocol; the results are presented in FIG. 3. C3 is expressed spontaneously under in vitro culture condition using 10% FCS added to HepG2 cells incubated for 12 hr. The cells are treated with different doses of PLAG from 1 to 100 μg/ml (Panel A, Panel B) or 10 and 100 μg/ml of S6I (Panel C), reacted with IL-4 and TNF-α for 1 hr and then incubated for 18 hr at 37° C. Cellular viability is confirmed using the WST-1 assay (Panel A).

[4] = tested on: hematopoietic stem cells and megakaryocytes; details: reported in WO 99/26640; cited from earlier work

For CCCCC/C=C\C/C=C\CCCCCCCC(=O)OC(COC(C)=O)COC(=O)CCCCCCCCCCCCCCC (racemic) [PLAG, 1-palmitoyl-2-linoleoyl-3-acetylglycerol], the “ERK1/2 and p38 phosphorylation” value [1] was “down-regulated”, the “expression of C3” value (C3 [2]) was “suppressed by PLAG on a concentration dependent basis” and the “decrease of C3 (expressed protein, ELISA)” value (C3 [3]) was “proportional to the concentration of PLAG”. For the same molecule, the “cellular viability (WST-1)” value (HepG2 cells) was “does not affect the cellular propagation and death” and the “growth-stimulating activities of hematopoietic stem cells and megakaryocytes” value [4] was “growth-stimulating activities”.
